Laboratory results from patent US20220119868A1, “PROFILING RNA-SMALL MOLECULE BINDING SITES WITH OLIGONUCLEOTIDES” (priority 2018, published 2022).

Legend:
[1] = biological target: RNA motif 5′UGU3′/3′G_A5′ (from RNA library C); test: In solution, fluorescence-based binding affinity assay
Method: (§1) Affinity of Selected RNA Motif-Small Molecule Interactions. The affinity of exemplar compounds that have inherent fluorescence was measured. […] . Binding affinities were confirmed using a label-free method, biolayer interferometry.
(§2) where n1 is the size of Population 1 (number of sequencing reads for a given RNA from RNA-seq analysis of the selected library), n2 is the size of Population 2 (number of sequencing reads for the same RNA from RNA-seq analysis of the starting library), p1 is the observed proportion of Population 1 (the number of reads for a given RNA from selected library/total number of reads), and p2 is the observed proportion for Population 2 (the number of reads for the same RNA in the starting library/total number of reads). Generation of Logos and DiffLogos: Zobs corresponding to the highest (enriched) 0.5% and lowest (discriminated against) 0.5% scores were analyzed to generate consensus sequences, or Logos. The resulting list of sequences were converted to position weight matrix (PWM) lists for each compound. “Enriched” and “discriminated” sequences were kept separate using JMP®, Version <13.2.1>. SAS Institute Inc., Cary, N.C., 1989-2007. The R package Difflogo,^16 which is part of Bioconductor, was utilized to create the sequence logos from PWM lists for each compound and visually compare the differences between them. Binding Affinity Measurements. Dissociation constants were determined using an in solution, fluorescence-based assay. […] Serial dilutions (1:2) of the small molecule were then completed in 1× Assay Buffer supplemented with 1 mM MgCl2. The solutions were incubated for 30 min at room temperature, transferred to a 96-well plate, and fluorescence intensity measured on a BioTek-FLx800 plate reader. The change in fluorescence intensity as a function of small molecule concentration was fit to a one site binding model per equation 3: […]
(§3) Effect of compounds on HCV replication. […] Cytotoxicity assays. […] Oligonucleotide profiling of target engagement in vitro. […] Primers can be found in Table 4. […] Inhibition of kinases. […] . Figure S7C).

[2] = biological target: RNA motif 5′AAC3′/3′U_G5′ (from RNA library C); test: as above
Method: as §1, §2, §3

[3] = biological target: RNA motif 5′GAG3′/3′C_C5′ (from RNA library C); test: as above
Method: as §1, §2, §3

[4] = biological target: RNA motif 5′UCCUU3′/3′AUUA5′ (non-binder); test: as above
Method: as §1, §2, §3

[5] = biological target: RNA motif 5′UCCAU3′/3′AUCA (non-binder); test: as above
Method: as §1, §2, §3

[6] = tested on: BP-SLI RNA (mutated SL I); test: Oligonucleotide profiling in vitro, control RNA mutated to remove 8's binding site; assay type: biochemical, Hepatitis C virus; details: complementary oligonucleotide
Source text: Application of an antisense agent (Table 4) and RNase H cleaves the RNA at the desired site. […] Additional control experiments were completed in which the RNA was mutated to remove 8's binding site and the corresponding complementary oligonucleotide to induce RNase H cleavage.
as §3

[7] = biological target: RNA motif 5′GAU3′/3′C_A5′ (from RNA library C); test: In solution, fluorescence-based binding affinity assay
Method: as §1, §2, §3

[8] = biological target: RNA motif 5′UCUAU3′/3′ACCA5′ (from RNA library C); test: as above
Method: as §1, §2, §3

[9] = biological target: RNA motif 5′GCU3′/3′C_A5′ (from RNA library C); test: as above
Method: as §1, §2, §3

Structure (SMILES)	Kd [1] [nM]	Kd [2] [nM]	Kd [3] [nM]	Kd [4] [nM]	Kd [5] [nM]	effect on antisense/RNase H cleavage of mutated RNA [6]	Kd [7] [nM]	Kd [8] [nM]	Kd [9] [nM]
O=C(Nc1cccc(NC(=O)Nc2cc(C(=O)Nc3ccc(C4=NCCN4)cc3)ccc2C(=O)Nc2ccc(C3=NCCN3)cc2)c1)Nc1cc(C(=O)Nc2ccc(C3=NCCN3)cc2)ccc1C(=O)Nc1ccc(C2=NCCN2)cc1 [Compound 7]	630 ± 36	420 ± 41	410 ± 26	2080 ± 300	7200 ± 418				
O=C(Nc1ccc(C2=NCCN2)cc1)c1cc(C(=O)Nc2ccc(C3=NCCN3)cc2)cc(C(=O)Nc2ccc(C3=NCCN3)cc2)c1 [Compound 8]						the extent and pattern of cleavage were similar in the absence and the presence of compound 8	600 ± 61	5580 ± 440	450 ± 47
